Experimental data from the NIST ThermoML archive (doi:10.1016/j.fluid.2011.01.021).
± gives the expanded uncertainty stated by the source.

Assays:
[1] = 298.15 K; 101.33 kPa; Liquid; Vibrating tube method
[2] = refractive index (Na D-line) (dimensionless); settings: 298.15 K; 101.33 kPa; Liquid; Standard Abbe refractometry

CCOS(=O)(=O)[O-].CCn1cc[n+](C)c1 [1-ethyl-3-methylimidazolium ethyl sulfate]
mass density [1]: 1237.23 ± 0.43 kg/m3
refractive index [2]: 1.4791 ± 0.0007
